From patent US20090181898A1, “ABUSE-RESISTANT A[…]” (SHIRE LLC, priority 2002, published 2009)
Marks after values point to notes of the source that are not given here.

Columns and labels:
stimulant abusers = test: Abuse liability of intravenous L-lysine-d-amphetamine in stimulant abusers; details: d-amphetamine 20 mg
rats [1] = test: Horizontal locomotor activity after oral administration; assay type: in vivo, Sprague-Dawley rats; set-up: Time of Peak (Counts per 0.2 h): unit not given here; details: rats, oral gavage 6 mg/kg
rats [2] = test: Locomotor activity after intravenous administration; assay type: in vivo, Sprague-Dawley rats; details: rat, 1.0 mg/kg
rats [3] = test: Locomotor activity after intranasal administration with and without CMC; assay type: in vivo, Sprague-Dawley rats; details: rats, intranasal 1.0 mg/kg, 1 h
Description: The CMC drug mixtures were suspended thoroughly before each dose was delivered.

[4] = Oral PK study at a high dose (60 mg/kg), 8 h time course; details: rat; for Mean plasma amphetamine concentration: high dose 60 mg/kg
[5] = Intranasal bioavailability (LC/MS/MS); details: rat, intranasal, 3 mg/kg
[6] = Oral bioavailability at escalating doses (LC/MS/MS); details: rat; for AUC0-8 of d-amphetamine / AUCinf of d-amphetamine / F of d-amphetamine / Tmax of d-amphetamine / Cmax of d-amphetamine / AUCinf alt. calc. of d-amphetamine: oral; for Cmax of d-amphetamine: LC/MS/MS; for AUCinf alt. calc. of d-amphetamine: WinNonlin, in ng·h/mL
anesthetized dog = test: Cardiovascular effects following intravenous injection in the anesthetized dog
[7] = IV, L-lysine-d-amphetamine 50 mg

## d-amphetamine
Stimulant abusers; IV
  Time of mean peak plasma level of d-amphetamine: 5 min
  Time of mean peak responses: 15 min
Stimulant abusers; [7]
  Mean maximum response on Subject Liking VAS vs placebo: significantly greater than placebo
  Subjects (of 9) who would take the treatment again: Six
Stimulant abusers; stimulant abusers, IV over 2 minutes, L-lysine-d-amphetamine 50 mg
  Mean peak plasma level of d-amphetamine: 77.7 ng/mL
Rats [1]; 5 h experiment
  Peak of activity (Counts per 0.2 h): 291 Counts per 0.2 h
  Time of Last Count Above 200 per 0.2 h: 2.6 h
  Time of Peak (Counts per 0.2 h): 0.6
  Total Activity Counts: 515
  Total Activity Counts Above Baseline: 0
Rats [1]; 12 h experiment
  Peak of activity (Counts per 0.2 h): 223 Counts per 0.2 h
  Time of Last Count Above 200 per 0.2 h: 6.4 h
  Time of Peak (Counts per 0.2 h): 0.6
  Total Activity Counts: 6622
  Total Activity Counts Above Baseline: 5686
Rats [2]
  Total Activity Counts (3 h): 1659
Rats [2]; 3 h
  Activity above baseline, Percent Amp: 100%
  Total Activity Counts Above Baseline: 1355
Rats [3]
  Total Activity Counts (1 h): 858
  Total Activity Counts Above Baseline: 686
[4]; 60 mg/kg
  AUC of d-amphetamine: 13420 ng·h/mL
  Animals that died or were sacrificed due to acute symptoms of toxicity: 8 of 12
  Cmax of d-amphetamine: 3623 ng/mL
  Mean Peak of d-amphetamine: 2973 ng/mL
  Mean Peak, Percent d-Amp: 100%
[4]; 0.5 h
  Mean plasma amphetamine concentration: 2643 ng/mL
[4]; 1 h
  Mean plasma amphetamine concentration: 2828 ng/mL
[4]; 3 h (d-amphetamine n = 2)
  Mean plasma amphetamine concentration: 2944* ng/ml
[4]; 5 h (d-amphetamine n = 2)
  Mean plasma amphetamine concentration: 153* ng/ml
[4]; 8 h (d-amphetamine n = 1)
  Mean plasma amphetamine concentration: 1309** ng/ml
[5]
  AUC0-1 of d-amphetamine: 1032 ng·h/mL
  AUCinf of d-amphetamine: 7291 ng·h/mL
[5]; LC/MS/MS
  Cmax of d-amphetamine: 1962.9 ng/mL
[5]; in ng·h/mL
  AUCinf alt. calc. of d-amphetamine: 1,267
[6]; in vivo, po, 60 mg/kg
  AUC (0-1.5) of d-amphetamine: 14,281** ng · h/mL
[6]; 3 mg/kg
  AUC0-8 of d-amphetamine: 885 ng·h/mL
  AUCinf of d-amphetamine: 921 ng·h/mL
  F of d-amphetamine: 84%
  Tmax of d-amphetamine: 90 min
  Cmax of d-amphetamine: 217.2 ng/mL
  AUCinf alt. calc. of d-amphetamine: 1,059
[6]; 6 mg/kg
  AUC0-8 of d-amphetamine: 1,319 ng · h/mL
  AUCinf of d-amphetamine: 1,362 ng · h/mL
  F of d-amphetamine: 62%
  Tmax of d-amphetamine: 15 min
  Cmax of d-amphetamine: 815.3 ng/mL
  AUCinf alt. calc. of d-amphetamine: 1429
[6]; 12 mg/kg
  AUC0-8 of d-amphetamine: 4,252 ng · h/mL
  AUCinf of d-amphetamine: 4,428 ng · h/mL
  F of d-amphetamine: 101%
  Tmax of d-amphetamine: 15 min
  Cmax of d-amphetamine: 1,533.1 ng/mL
  AUCinf alt. calc. of d-amphetamine: 4,636
[6]; 60 mg/kg
  AUCinf of d-amphetamine: 48,707 ng · h/mL
  F of d-amphetamine: 223%
  Tmax of d-amphetamine: 60 min
  Cmax of d-amphetamine: 13,735 ng/mL
  AUCinf alt. calc. of d-amphetamine: 48,707
[6]; […]
  Tmax of d-amphetamine: 30 min
Anesthetized dog; iv 0.202 mg/kg, Time 0
  DAP % Change: 0%
  LVP % Change: 0%
  MAP % Change: 0%
  MAP mean arterial pressure: 84 mmHg
  SAP % Change: 0%
  SAP systolic arterial pressure: 111 mmHg
Anesthetized dog; iv 0.202 mg/kg, Time 5
  DAP % Change: 117%
  LVP % Change: 107%
  MAP % Change: 109%
  MAP mean arterial pressure: 176 mmHg
  SAP % Change: 97%
  SAP systolic arterial pressure: 218 mmHg
Anesthetized dog; iv 0.202 mg/kg, Time 15
  DAP % Change: 45%
  LVP % Change: 52%
  MAP % Change: 49%
  MAP mean arterial pressure: 125 mmHg
  SAP % Change: 52%
  SAP systolic arterial pressure: 168 mmHg
Anesthetized dog; iv 0.202 mg/kg, Time 25
  DAP % Change: 30%
  LVP % Change: 37%
  MAP % Change: 31%
  MAP mean arterial pressure: 110 mmHg
  SAP % Change: 34%
  SAP systolic arterial pressure: 148 mmHg
Anesthetized dog; iv 0.202 mg/kg, Time 30
  DAP % Change: 20%
  LVP % Change: 30%
  MAP % Change: 23%
  MAP mean arterial pressure: 103 mmHg
  SAP % Change: 26%
  SAP systolic arterial pressure: 140 mmHg
Anesthetized dog; iv 0.404 mg/kg, Time 0
  DAP % Change: 0%
  LVP % Change: 0%
  MAP % Change: 0%
  MAP mean arterial pressure: 101 mmHg
  SAP % Change: 0%
  SAP systolic arterial pressure: 139 mmHg
Anesthetized dog; iv 0.404 mg/kg, Time 5
  DAP % Change: 88%
  LVP % Change: 79%
  MAP % Change: 85%
  MAP mean arterial pressure: 187 mmHg
  SAP % Change: 73%
  SAP systolic arterial pressure: 240 mmHg
Anesthetized dog; iv 0.404 mg/kg, Time 15
  DAP % Change: 44%
  LVP % Change: 43%
  MAP % Change: 43%
  MAP mean arterial pressure: 145 mmHg
  SAP % Change: 39%
  SAP systolic arterial pressure: 193 mmHg
Anesthetized dog; iv 0.404 mg/kg, Time 25
  DAP % Change: 17%
  LVP % Change: 26%
  MAP % Change: 20%
  MAP mean arterial pressure: 122 mmHg
  SAP % Change: 19%
  SAP systolic arterial pressure: 166 mmHg
Anesthetized dog; iv 0.404 mg/kg, Time 30
  DAP % Change: 11%
  LVP % Change: 22%
  MAP % Change: 16%
  MAP mean arterial pressure: 117 mmHg
  SAP % Change: 16%
  SAP systolic arterial pressure: 160 mmHg
Anesthetized dog; iv 2.02 mg/kg, Time 0
  DAP % Change: 0%
  LVP % Change: 0%
  MAP % Change: 0%
  MAP mean arterial pressure: 115 mmHg
  SAP % Change: 0%
  SAP systolic arterial pressure: 158 mmHg
Anesthetized dog; iv 2.02 mg/kg, Time 5
  DAP % Change: 48%
  LVP % Change: 40%
  MAP % Change: 47%
  MAP mean arterial pressure: 169 mmHg
  SAP % Change: 44%
  SAP systolic arterial pressure: 228 mmHg
Anesthetized dog; iv 2.02 mg/kg, Time 15
  DAP % Change: 23%
  LVP % Change: 24%
  MAP % Change: 23%
  MAP mean arterial pressure: 142 mmHg
  SAP % Change: 24%
  SAP systolic arterial pressure: 196 mmHg
Anesthetized dog; iv 2.02 mg/kg, Time 25
  DAP % Change: 17%
  LVP % Change: 19%
  MAP % Change: 17%
  MAP mean arterial pressure: 135 mmHg
  SAP % Change: 20%
  SAP systolic arterial pressure: 189 mmHg
Anesthetized dog; iv 2.02 mg/kg, Time 30
  DAP % Change: 13%
  LVP % Change: 16%
  MAP % Change: 12%
  MAP mean arterial pressure: 129 mmHg
  SAP % Change: 16%
  SAP systolic arterial pressure: 183 mmHg
